Assay results reported in US20190307141A1, “LACTIC ACID BACTERIAL FERMENTATION PROMOTING AGENT” (MEIJI CO., LTD., priority 2016, published 2019).

Legend:
Format in all cases: cell-based
[1] = system: Streptococcus thermophilus OLS3059 strain; assay: Fermentation promoting effect in UHT sterilized milk, pH of the fermentation liquid over time; settings: 43° C.; for fermentation promoting effect (pH of the fermentation liquid over time vs control): test substance 0.05 mmol/kg in UHT sterilized milk, starter 1% (vol/wt); for fermentation promoting effect (pH over time) of mixtures with guanosine in different mixing ratios: adenosine:guanosine 10:0, 7:3, 5:5, 3:7, inosine:guanosine 10:0, 7:3, 5:5, 4:6 (weight ratio), total 0.05 mmol/kg, UHT sterilized milk
Protocol: (§1) The above test substances were each added to UHT sterilized milk (cow milk sterilized by a UHT method (ultrahigh temperature sterilization method); sterilized at 130° C. for 2 seconds), and warmed to 43° C. […] To the warmed UHT sterilized milk, Streptococcus thermophilus OLS3059 strain (accession number FERM BP-10740) was inoculated as a starter in an inoculation amount of 1% (vol/wt) (corresponding to a bacterial cell concentration of 1 to 2×10^7 cfu/mL), and the fermentation was started at 43° C. As a control, the fermentation using UHT sterilized milk without the above test substances was also carried out. Herein, S. thermophilus OLS3059 strain was cultured using MRS (Difco) at 37° C. for 16 hours for preparation of the bacterial cells to be used in the fermentation below. After culturing using MRS, the bacterial cells were collected by centrifugation (8,000 g for 5 minutes), and then suspended into 0.8% sodium chloride solution. The resulting bacterial cell suspension (bacterial cell concentration of 1 to 2×10^9 cfu/mL) was used as a starter. In the following Examples using S. thermophilus, a S. thermophilus bacterial suspension prepared according to the same method as the present Example was used as a starter, unless otherwise stated.
The pH of the fermentation liquid was measured over time. A decrease in the pH in the lactic acid bacteria culture medium and the fermentation liquid indicates an increase in the amount of lactic acid production associated with the lactic acid bacterial fermentation and is used as an indicator of the progress degree of the lactic acid bacterial fermentation. […]
In this test, a 10 mM solution of each of the test substances (purines) in 0.1N NaOH was added to UHT sterilized milk in an amount such that the concentration of the test substance in the UHT sterilized milk was 0.05 mmol/kg, whereby UHT sterilized milk supplemented with the test substance was prepared. Additionally, as a control, the fermentation using UHT sterilized milk without the test substances (purines) was also carried out.
UHT sterilized milk supplemented with adenine which is a purine base, or a derivative thereof that is adenosine, deoxyadenosine, or adenylic acid (adenosine monophosphate; AMP) added as a test substance, was warmed to 43° C., subsequently S. thermophilus OLS3059 strain was inoculated as a starter in an amount of 1% (vol/wt), and the fermentation was started at 43° C. The pH of the fermentation liquid was measured over time. […]
The fermentation promoting effect on S. thermophilus was examined by the same method as described in Example 2, except that mixtures of adenosine and guanosine in different mixing ratios or mixtures of inosine and guanosine in different mixing ratios were used as test substances.

[2] = system: Lactobacillus johnsonii OLL2725; assay: Fermentation promoting effect in UHT sterilized milk with casein-hydrolyzed peptide, pH over time; settings: adenylic acid 0.05 mmol/kg or 1:1 mixture 0.025% (wt/wt); UHT sterilized milk with 0.2% casein-hydrolyzed peptide, 43° C.
[3] = system: Leuconostoc lactis OLS5167; assay: Fermentation promoting effect in UHT sterilized milk, pH over time; settings: adenylic acid 0.05 mmol/kg or 1:1 mixture 0.025% (wt/wt); UHT sterilized milk with 0.2% casein-hydrolyzed peptide, 43° C.
Protocol: as §1
(§2) The pH of the fermentation liquid was measured over time. A decrease in the pH in the lactic acid bacteria culture medium and the fermentation liquid indicates an increase in the amount of lactic acid production associated with the lactic acid bacterial fermentation and is used as an indicator of the progress degree of the lactic acid bacterial fermentation.
(§3) Starters (bacterial suspensions) were prepared from the respective bacterial strains by the same method as described in Example 1. The starter was inoculated in an inoculation amount of 1% (vol/wt). Except for these points, the fermentation promoting effect was evaluated in the same manner as in Example 1.
(§4) The preparation method and the inoculation amount (%) of the starter are as described in Example 1. Except for these points, the fermentation promoting effect was evaluated in the same manner as in Example 1.

[4] = system: Lactobacillus delbrueckii subsp. bulgaricus OLL1073R-1; assay: as above; settings: adenylic acid 0.05 mmol/kg or 1:1 mixture 0.025% (wt/wt); UHT sterilized milk with 0.2% casein-hydrolyzed peptide, 43° C.
Protocol: as §1, §2, §3, §4

[5] = system: Lactococcus lactis subsp. lactis OLS3445; assay: as above; settings: adenylic acid 0.05 mmol/kg or 1:1 mixture 0.025% (wt/wt); UHT sterilized milk with 0.2% casein-hydrolyzed peptide, 43° C.
Protocol: as §1, §2, §3, §4

[6] = system: Lactobacillus helveticus OLL1482; assay: as above; settings: adenylic acid 0.05 mmol/kg or 1:1 mixture 0.025% (wt/wt); UHT sterilized milk with 0.2% casein-hydrolyzed peptide, 43° C.
Protocol: as §1, §2, §3, §4

[7] = system: Lactobacillus gasseri OLL2716; assay: as above; settings: adenylic acid 0.05 mmol/kg or 1:1 mixture 0.025% (wt/wt); UHT sterilized milk with 0.2% casein-hydrolyzed peptide, 43° C.
Protocol: as §1, §2, §3, §4

[8] = system: Lactobacillus acidophilus OLL1836; assay: Fermentation promoting effect in UHT sterilized milk with casein-hydrolyzed peptide, pH over time; settings: adenylic acid 0.05 mmol/kg or 1:1 mixture 0.025% (wt/wt); UHT sterilized milk with 0.2% casein-hydrolyzed peptide, 43° C.

| Molecule | fermentation promoting effect (pH of the fermentation liquid over time vs control) [1] | also measured |
| --- | --- | --- |
| O=c1cc[nH]c(=O)[nH]1 [uracil] | did not exhibit the fermentation promoting effects |  |
| Nc1ccn([C@@H]2O[C@H](CO)[C@@H](O)[C@H]2O)c(=O)n1 [cytidine] | did not exhibit the fermentation promoting effects |  |
| OC[C@H]1O[C@@H](n2cnc3c(O)ncnc32)C[C@@H]1O [deoxyinosine] | notable fermentation promoting effects |  |
| O=c1[nH]cnc2nc[nH]c12 [hypoxanthine] | notable fermentation promoting effects |  |
| Nc1cc[nH]c(=O)n1 [cytosine] | did not exhibit the fermentation promoting effects |  |
| Cc1c[nH]c(=O)[nH]c1=O [thymine] | did not exhibit the fermentation promoting effects |  |
| OC[C@H]1O[C@@H](n2cnc3c(O)ncnc32)[C@H](O)[C@@H]1O [inosine] | notable fermentation promoting effects | fermentation promoting effect (pH over time) of mixtures with guanosine in different mixing ratios [1]: exhibit the fermentation promoting effect in a concentration-dependent manner |
| Nc1ncnc2c1ncn2[C@H]1C[C@H](O)[C@@H](CO)O1 [deoxyadenosine] | notable fermentation promoting effects |  |
| Nc1nc2c(ncn2[C@H]2C[C@H](O)[C@@H](CO)O2)c(=O)[nH]1 [deoxyguanosine] | did not exhibit the fermentation promoting effects |  |
| O=c1ccn([C@@H]2O[C@H](CO)[C@@H](O)[C@H]2O)c(=O)[nH]1 [uridine] | did not exhibit the fermentation promoting effects |  |
| O=c1[nH]c(=O)c2[nH]c(=O)[nH]c2[nH]1 [uric acid] | did not exhibit the fermentation promoting effects |  |
| Nc1ncnc2c1ncn2[C@@H]1O[C@H](CO)[C@@H](O)[C@H]1O [adenosine] | notable fermentation promoting effects | fermentation promoting effect (pH over time) of mixtures with guanosine in different mixing ratios [1]: exhibit the fermentation promoting effect in a concentration-dependent manner |
| Nc1ncnc2nc[nH]c12 [adenine] | notable fermentation promoting effects |  |
| adenylic acid [AMP] | notable fermentation promoting effects | fermentation promoting effect (pH over time vs control) [2]: shown in all the strains tested; fermentation promoting effect (pH over time vs control) [3]: shown in all the strains tested; fermentation promoting effect (pH over time vs control) [4]: shown in all the strains tested; fermentation promoting effect (pH over time vs control) [5]: shown in all the strains tested; fermentation promoting effect (pH over time vs control) [6]: shown in all the strains tested; fermentation promoting effect (pH over time vs control) [7]: shown in all the strains tested; fermentation promoting effect (pH over time vs control) [8]: shown in all the strains tested |
| O=c1[nH]c(=O)c2[nH]cnc2[nH]1 [xanthine] | did not exhibit the fermentation promoting effects |  |
| Nc1nc2c(ncn2[C@@H]2O[C@H](CO)[C@@H](O)[C@H]2O)c(=O)[nH]1 [guanosine] | did not exhibit the fermentation promoting effects | fermentation promoting effect (pH over time) of mixtures with guanosine in different mixing ratios [1]: does not exhibit the fermentation promoting effect |
| Nc1nc2nc[nH]c2c(=O)[nH]1 [guanine] | did not exhibit the fermentation promoting effects |  |
| Cc1cn([C@H]2C[C@H](O)[C@@H](CO)O2)c(=O)[nH]c1=O [thymidine] | did not exhibit the fermentation promoting effects |  |
